Laboratory results: US20120010075A1 (priority 2009, published 2012)
Where two headings read alike, the source gives them in different places.

Tests used:
[1] = test system: Leptosphaeria nodorum (LEPTNO); assay: In vitro fungitoxicity of hydrazones with and without copper towards Leptosphaeria nodorum (Example 26); type: cell-based; details: 72 h at 25° C.; for inhibition of growth at 0.05 µg/mL: Parastagonospora nodorum, 72 h, copper-minus medium, read-out: LEPTNO % Inhn. Minus Copper Observed
Phytophthora infestans = type: in vivo, Phytophthora infestans on tomato; details: applied 24 h before inoculation, assessed 7 days after inoculation
Ustilago maydis = assay: In vitro fungitoxicity of hydrazones with and without copper towards Ustilago maydis (Example 29, Table 4); type: cell-based; details: 1 μg/mL, 48 h; for % Inhn. Plus copper Observed: copper-plus medium (CuCl2, 10 μM); for inhibition of growth at 1 µg/mL: Mycosarcoma maydis, copper-minus medium, read-out: % Inhn. Minus copper Observed
[2] = test system: Septoria tritici isolate USA-184; assay: In vitro fungitoxicity of hydrazones with and without copper towards Septoria tritici (Example 30, Table 5); type: cell-based; details: Zymoseptoria tritici, 0.05 μg/mL
Phytophthora capsici = assay: In vitro fungitoxicity of hydrazones with and without copper towards Phytophthora capsici (Example 28, Table 3); type: cell-based; details: 48 h; for % Inhn Plus copper Observed: copper-plus AS medium (CuCl2, 50 μM)
[3] = test compound Concn. 0.05 μg/mL
[4] = copper-plus medium (CuCl2 10 μM), test compound Concn. 0.05 μg/mL
[5] = hydrazone 50 ppm with 50 μM CuCl2.2H2O, tomato late blight
[6] = Colby formula, CuCl2, read-out: % Inhibition Plus copper Predicted
[7] = copper-minus medium, 90 h, read-out: % Inhibition Minus copper Observed
[8] = copper-plus medium CuCl2, 90 h, read-out: % Inhibition Plus copper Observed
[9] = compound 0.05 μg/mL, copper-plus medium (CuCl2.2H2O)
[10] = hydrazone 50 ppm + 50 μM CuCl2.2H2O, tomato
[11] = Phytophthora capsici, 0.050 μg/mL, copper-minus AS medium, read-out: % Inhn Minus copper Observed

Row | SMILES | inhibition of growth at 0.05 µg/mL [1, 3] | LEPTNO % Inhn. Plus Copper Observed [1, 4] | TLB % Control (Phytophthora infestans; [5]) | % Inhn. Plus copper Observed (Ustilago maydis) | inhibition of growth at 1 µg/mL (Ustilago maydis) | inhibition at 0.05 µg/mL [2, 6] | inhibition at 0.05 µg/mL [2, 7] | inhibition at 0.05 µg/mL [2, 8] | melting point | inhibition of growth at 0.05 µg/mL ([1]; compound 0.05 μg/mL) | LEPTNO % Inhn. Plus Copper Observed [1, 9] | TLB % Control (Phytophthora infestans; [10]) | % Inhn Plus copper Observed (Phytophthora capsici; 0.050 μg/mL) | inhibition of growth at 0.05 µg/mL (Phytophthora capsici; [11]) | % Inhn Plus copper Observed (Phytophthora capsici; 0.039 μg/mL) | inhibition of growth at 0.039 µg/mL (Phytophthora capsici; Phytophthora capsici, 0.039 μg/mL, copper-minus AS medium, read-out: % Inhn Minus copper Observed)
1 | O=C(N/N=C/c1cc(C(F)(F)F)cc(Cl)c1O)c1ccccc1O [Example 329] | 14% | 93.5% | 99.0% | 41.8% | 16.2% | 14.9% | 14.9% | 55.1% | 258 to 260 °C |  |  |  |  |  |  | 
2 | COc1cc(Br)cc(/C=N/NC(=O)c2cccc(Br)c2)c1O [Example 204] |  |  |  | 77.0% | 0% | 0% | 0% | 84.4% |  | 7.3% | 95.5% | 77.2% | 81.9% | 6% |  | 
3 | O=C(N/N=C/c1cc(Cl)ccc1O)c1ccccc1O [Example 177] |  |  |  | 33.3% | 0% | 0.2% | 0.2% | 95.2% |  | 12.5% | 95.2% | 91.0% | 92.4% | 0% |  | 
4 | Cc1ccc(C(=O)N/N=C/c2cc(Cl)cc(Cl)c2O)c(Br)c1 [Example 228] |  |  |  |  |  |  |  |  | 240 to 242 °C | 2.6% | 97.0% | 68.4% | 86.9% | 10% |  | 
5 | C/C(=N\NC(=O)c1ccccc1)c1ccccc1O [Example 230] |  |  |  | 94.4% | 11.9% | 43.6% | 43.6% | 96.7% | 185 to 187 °C | 9% | 98.3% | 65.0% | 93.6% | 5.8% |  | 
6 | Cc1cc(C)cc(C(=O)N/N=C/c2cc(Cl)cc(Cl)c2O)c1 [Example 102] |  |  |  |  |  |  |  |  | 207 to 209 °C | 0% | 93.4% | 74.0% |  |  | 93.6% | 15.7%
7 | O=C(N/N=C/c1cc(C(F)(F)F)cc(Cl)c1O)c1ccccc1 [Example 275] |  |  |  | 92.2% | 0% | 16.2% | 16.2% | 93.5% | 216 to 222 °C | 0% | 98.4% | 79.7% | 91.2% | 0% |  | 
8 | O=C(N/N=C/c1c(O)cccc1Cl)c1ccc([N+](=O)[O-])cc1 [Example 405] | 2.8% | 96.2% | 98.0% | 90.0% | 9.6% | 18.8% | 18.8% | 89.9% | > 300 °C |  |  |  | 85.9% | 0.6% |  | 
9 | O=C(N/N=C/c1c(C(F)(F)F)ccc(Cl)c1O)c1ccccc1O [Example 455] | 16.7% | 100.0% | 100.0% | 96.0% | 0% | 27.5% | 27.5% | 92.4% | 278 to 280 °C |  |  |  | 30.8% | 0% |  | 
10 | O=C(N/N=C/c1cccc(C(F)(F)F)c1O)c1ccccc1O [Example 351] | 7.7% | 96.1% | 100.0% | 97.7% | 27.1% | 44.4% | 44.4% | 97.1% | 230 to 234 °C |  |  |  | 87.9% | 0% |  | 
11 | O=C(N/N=C/c1cc(Cl)cc(Cl)c1O)c1cc(I)ccc1Cl [Example 225] |  |  |  |  |  |  |  |  | 198 to 201 °C | 0% | 96.6% | 78.2% | 82.8% | 11.4% |  | 
